Reference: publication PMC8217813, “Bridging Computational Vaccinology and Vaccine Development Through Systematic Identification, Characterization, and Downselection of Conserved and Variable Circumsporozoite Protein CD4 T Cell Epitopes From Diverse Plasmodium falciparum Strains” (Frontiers in Immunology, 2021)

Tested on: CD4 T cells co-cultured with autologous DCs from PBMCs
Assay type: cell-based, human
Conditions: positive = Stimulation Index ≥1.5-fold above baseline, 5 µg/mL peptide; for Percentage of donors demonstrating IFN-γ responses, DR1 / Percentage of donors demonstrating IL-2 responses, DR1 / Percentage of donors demonstrating IL-4 responses, DR1 / Percentage of donors demonstrating IL-10 responses, DR1 / Percentage of donors demonstrating TNF-α responses, DR1: DR1 donors N=5; for Percentage of donors demonstrating IFN-γ responses, DR1 / Percentage of donors demonstrating IFN-γ responses, DR3 / Percentage of donors demonstrating IFN-γ responses, DR4 / Percentage of donors demonstrating IFN-γ responses, DR7 / Percentage of donors demonstrating IFN-γ responses, DR8 / Percentage of donors demonstrating IFN-γ responses, DR9 / Percentage of donors demonstrating IFN-γ responses, DR11 / Percentage of donors demonstrating IFN-γ responses, DR13 / Percentage of donors demonstrating IFN-γ responses, DR15: ICCS after 14-day co-culture; for Percentage of donors demonstrating IL-2 responses, DR1 / Percentage of donors demonstrating IL-4 responses, DR1 / Percentage of donors demonstrating IL-10 responses, DR1 / Percentage of donors demonstrating TNF-α responses, DR1 / Percentage of donors demonstrating IL-2 responses, DR3 / Percentage of donors demonstrating IL-4 responses, DR3 / Percentage of donors demonstrating IL-10 responses, DR3 / Percentage of donors demonstrating TNF-α responses, DR3 / Percentage of donors demonstrating IL-2 responses, DR4 / Percentage of donors demonstrating IL-4 responses, DR4 / Percentage of donors demonstrating IL-10 responses, DR4 / Percentage of donors demonstrating TNF-α responses, DR4 / Percentage of donors demonstrating IL-2 responses, DR7 / Percentage of donors demonstrating IL-4 responses, DR7 / Percentage of donors demonstrating IL-10 responses, DR7 / Percentage of donors demonstrating TNF-α responses, DR7 / Percentage of donors demonstrating IL-2 responses, DR8 / Percentage of donors demonstrating IL-4 responses, DR8 / Percentage of donors demonstrating IL-10 responses, DR8 / Percentage of donors demonstrating TNF-α responses, DR8 / Percentage of donors demonstrating IL-2 responses, DR9 / Percentage of donors demonstrating IL-4 responses, DR9 / Percentage of donors demonstrating IL-10 responses, DR9 / Percentage of donors demonstrating TNF-α responses, DR9 / Percentage of donors demonstrating IL-2 responses, DR11 / Percentage of donors demonstrating IL-4 responses, DR11 / Percentage of donors demonstrating IL-10 responses, DR11 / Percentage of donors demonstrating TNF-α responses, DR11 / Percentage of donors demonstrating IL-2 responses, DR13 / Percentage of donors demonstrating IL-4 responses, DR13 / Percentage of donors demonstrating IL-10 responses, DR13 / Percentage of donors demonstrating TNF-α responses, DR13 / Percentage of donors demonstrating IL-2 responses, DR15 / Percentage of donors demonstrating IL-4 responses, DR15 / Percentage of donors demonstrating IL-10 responses, DR15 / Percentage of donors demonstrating TNF-α responses, DR15: ICCS; for Percentage of donors demonstrating IFN-γ responses, DR3 / Percentage of donors demonstrating IL-2 responses, DR3 / Percentage of donors demonstrating IL-4 responses, DR3 / Percentage of donors demonstrating IL-10 responses, DR3 / Percentage of donors demonstrating TNF-α responses, DR3: DR3 donors N=6; for Percentage of donors demonstrating IFN-γ responses, DR4 / Percentage of donors demonstrating IL-2 responses, DR4 / Percentage of donors demonstrating IL-4 responses, DR4 / Percentage of donors demonstrating IL-10 responses, DR4 / Percentage of donors demonstrating TNF-α responses, DR4: DR4 donors N=10; for Percentage of donors demonstrating IFN-γ responses, DR7 / Percentage of donors demonstrating IL-2 responses, DR7 / Percentage of donors demonstrating IL-4 responses, DR7 / Percentage of donors demonstrating IL-10 responses, DR7 / Percentage of donors demonstrating TNF-α responses, DR7: DR7 donors N=4; for Percentage of donors demonstrating IFN-γ responses, DR8 / Percentage of donors demonstrating IL-2 responses, DR8 / Percentage of donors demonstrating IL-4 responses, DR8 / Percentage of donors demonstrating IL-10 responses, DR8 / Percentage of donors demonstrating TNF-α responses, DR8: DR8 donors N=4; for Percentage of donors demonstrating IFN-γ responses, DR9 / Percentage of donors demonstrating IL-2 responses, DR9 / Percentage of donors demonstrating IL-4 responses, DR9 / Percentage of donors demonstrating IL-10 responses, DR9 / Percentage of donors demonstrating TNF-α responses, DR9: DR9 donors N=4; for Percentage of donors demonstrating IFN-γ responses, DR11 / Percentage of donors demonstrating IL-2 responses, DR11 / Percentage of donors demonstrating IL-4 responses, DR11 / Percentage of donors demonstrating IL-10 responses, DR11 / Percentage of donors demonstrating TNF-α responses, DR11: DR11 donors N=4; for Percentage of donors demonstrating IFN-γ responses, DR13 / Percentage of donors demonstrating IL-2 responses, DR13 / Percentage of donors demonstrating IL-4 responses, DR13 / Percentage of donors demonstrating IL-10 responses, DR13 / Percentage of donors demonstrating TNF-α responses, DR13: DR13 donors N=7; for Percentage of donors demonstrating IFN-γ responses, DR15 / Percentage of donors demonstrating IL-2 responses, DR15 / Percentage of donors demonstrating IL-4 responses, DR15 / Percentage of donors demonstrating IL-10 responses, DR15 / Percentage of donors demonstrating TNF-α responses, DR15: DR15 donors N=7

DKHIEKYLKRIQNSLSTEWS [ICS9]
17%: Percentage of donors demonstrating IL-10 responses, DR3
0%: Percentage of donors demonstrating IL-4 responses, DR1 | Percentage of donors demonstrating IL-10 responses, DR1 | Percentage of donors demonstrating IL-4 responses, DR4 | Percentage of donors demonstrating IL-10 responses, DR7 | Percentage of donors demonstrating IL-4 responses, DR8 | Percentage of donors demonstrating IL-10 responses, DR8 | Percentage of donors demonstrating IL-4 responses, DR9 | Percentage of donors demonstrating IL-10 responses, DR9 | Percentage of donors demonstrating IL-4 responses, DR11 | Percentage of donors demonstrating IL-10 responses, DR11 | Percentage of donors demonstrating IL-4 responses, DR13
25%: Percentage of donors demonstrating IL-4 responses, DR7
10%: Percentage of donors demonstrating IL-10 responses, DR4
57%: Percentage of donors demonstrating TNF-α responses, DR13 | Percentage of donors demonstrating IFN-γ responses, DR15
43%: Percentage of donors demonstrating IFN-γ responses, DR13 | Percentage of donors demonstrating IL-2 responses, DR13 | Percentage of donors demonstrating IL-2 responses, DR15 | Percentage of donors demonstrating IL-10 responses, DR15 | Percentage of donors demonstrating TNF-α responses, DR15
20%: Percentage of donors demonstrating IL-2 responses, DR1
75%: Percentage of donors demonstrating IFN-γ responses, DR7 | Percentage of donors demonstrating IL-2 responses, DR8 | Percentage of donors demonstrating IFN-γ responses, DR11 | Percentage of donors demonstrating TNF-α responses, DR11
40%: Percentage of donors demonstrating IFN-γ responses, DR1 | Percentage of donors demonstrating TNF-α responses, DR1
33%: Percentage of donors demonstrating IL-2 responses, DR3 | Percentage of donors demonstrating IL-4 responses, DR3
14%: Percentage of donors demonstrating IL-10 responses, DR13 | Percentage of donors demonstrating IL-4 responses, DR15
70%: Percentage of donors demonstrating IFN-γ responses, DR4 | Percentage of donors demonstrating TNF-α responses, DR4
100%: Percentage of donors demonstrating TNF-α responses, DR8
50%: Percentage of donors demonstrating IFN-γ responses, DR3 | Percentage of donors demonstrating TNF-α responses, DR3 | Percentage of donors demonstrating IL-2 responses, DR4 | Percentage of donors demonstrating IL-2 responses, DR7 | Percentage of donors demonstrating TNF-α responses, DR7 | Percentage of donors demonstrating IFN-γ responses, DR8 | Percentage of donors demonstrating IFN-γ responses, DR9 | Percentage of donors demonstrating IL-2 responses, DR9 | Percentage of donors demonstrating TNF-α responses, DR9 | Percentage of donors demonstrating IL-2 responses, DR11

DQHIEKYLKTIKNSLSTEWS [ICS10]
25%: Percentage of donors demonstrating IL-2 responses, DR7 | Percentage of donors demonstrating IL-10 responses, DR7 | Percentage of donors demonstrating TNF-α responses, DR7 | Percentage of donors demonstrating IFN-γ responses, DR9 | Percentage of donors demonstrating IL-2 responses, DR9 | Percentage of donors demonstrating TNF-α responses, DR9 | Percentage of donors demonstrating TNF-α responses, DR11
0%: Percentage of donors demonstrating IL-2 responses, DR1 | Percentage of donors demonstrating IL-4 responses, DR1 | Percentage of donors demonstrating IL-10 responses, DR1 | Percentage of donors demonstrating TNF-α responses, DR1 | Percentage of donors demonstrating IL-10 responses, DR3 | Percentage of donors demonstrating IL-4 responses, DR4 | Percentage of donors demonstrating IL-4 responses, DR7 | Percentage of donors demonstrating IFN-γ responses, DR8 | Percentage of donors demonstrating IL-2 responses, DR8 | Percentage of donors demonstrating IL-4 responses, DR8 | Percentage of donors demonstrating IL-10 responses, DR8 | Percentage of donors demonstrating TNF-α responses, DR8 | Percentage of donors demonstrating IL-4 responses, DR9 | Percentage of donors demonstrating IL-10 responses, DR9 | Percentage of donors demonstrating IL-4 responses, DR11 | Percentage of donors demonstrating IL-10 responses, DR11 | Percentage of donors demonstrating IL-4 responses, DR13 | Percentage of donors demonstrating IL-10 responses, DR13 | Percentage of donors demonstrating IL-10 responses, DR15
17%: Percentage of donors demonstrating IL-2 responses, DR3 | Percentage of donors demonstrating IL-4 responses, DR3 | Percentage of donors demonstrating TNF-α responses, DR3
30%: Percentage of donors demonstrating IL-2 responses, DR4
75%: Percentage of donors demonstrating IFN-γ responses, DR7
57%: Percentage of donors demonstrating IFN-γ responses, DR15
14%: Percentage of donors demonstrating IL-2 responses, DR13 | Percentage of donors demonstrating TNF-α responses, DR13 | Percentage of donors demonstrating IL-2 responses, DR15 | Percentage of donors demonstrating IL-4 responses, DR15 | Percentage of donors demonstrating TNF-α responses, DR15
29%: Percentage of donors demonstrating IFN-γ responses, DR13
10%: Percentage of donors demonstrating IL-10 responses, DR4 | Percentage of donors demonstrating TNF-α responses, DR4
20%: Percentage of donors demonstrating IFN-γ responses, DR1
50%: Percentage of donors demonstrating IFN-γ responses, DR11 | Percentage of donors demonstrating IL-2 responses, DR11
40%: Percentage of donors demonstrating IFN-γ responses, DR4
33%: Percentage of donors demonstrating IFN-γ responses, DR3

DQHIEQYLKKIQNSISTEWS [ICS3]
17%: Percentage of donors demonstrating IL-4 responses, DR3 | Percentage of donors demonstrating IL-10 responses, DR3
10%: Percentage of donors demonstrating IL-4 responses, DR4
25%: Percentage of donors demonstrating TNF-α responses, DR8 | Percentage of donors demonstrating TNF-α responses, DR9 | Percentage of donors demonstrating IFN-γ responses, DR11 | Percentage of donors demonstrating IL-2 responses, DR11
0%: Percentage of donors demonstrating IL-4 responses, DR1 | Percentage of donors demonstrating IL-2 responses, DR3 | Percentage of donors demonstrating TNF-α responses, DR3 | Percentage of donors demonstrating IL-10 responses, DR4 | Percentage of donors demonstrating IL-4 responses, DR7 | Percentage of donors demonstrating IL-10 responses, DR7 | Percentage of donors demonstrating IFN-γ responses, DR8 | Percentage of donors demonstrating IL-2 responses, DR8 | Percentage of donors demonstrating IL-4 responses, DR8 | Percentage of donors demonstrating IL-10 responses, DR8 | Percentage of donors demonstrating IFN-γ responses, DR9 | Percentage of donors demonstrating IL-2 responses, DR9 | Percentage of donors demonstrating IL-4 responses, DR9 | Percentage of donors demonstrating IL-10 responses, DR9 | Percentage of donors demonstrating IL-4 responses, DR11 | Percentage of donors demonstrating IL-10 responses, DR11 | Percentage of donors demonstrating IFN-γ responses, DR13 | Percentage of donors demonstrating IL-2 responses, DR13 | Percentage of donors demonstrating IL-4 responses, DR13 | Percentage of donors demonstrating IL-10 responses, DR13 | Percentage of donors demonstrating IL-4 responses, DR15
80%: Percentage of donors demonstrating IFN-γ responses, DR1 | Percentage of donors demonstrating IL-2 responses, DR1
20%: Percentage of donors demonstrating IL-10 responses, DR1
30%: Percentage of donors demonstrating IFN-γ responses, DR4
40%: Percentage of donors demonstrating IL-2 responses, DR4 | Percentage of donors demonstrating TNF-α responses, DR4
50%: Percentage of donors demonstrating IL-2 responses, DR7 | Percentage of donors demonstrating TNF-α responses, DR7 | Percentage of donors demonstrating TNF-α responses, DR11
75%: Percentage of donors demonstrating IFN-γ responses, DR7
29%: Percentage of donors demonstrating TNF-α responses, DR15
60%: Percentage of donors demonstrating TNF-α responses, DR1
14%: Percentage of donors demonstrating TNF-α responses, DR13 | Percentage of donors demonstrating IFN-γ responses, DR15 | Percentage of donors demonstrating IL-2 responses, DR15 | Percentage of donors demonstrating IL-10 responses, DR15
33%: Percentage of donors demonstrating IFN-γ responses, DR3
